Reference: ChEMBL document CHEMBL4184104, “Identification of novel allosteric inhibitors of mutant isocitrate dehydrogenase 1 by cross docking-based virtual screening” (Bioorg Med Chem Lett, 2018)

Key:
[1] = test system: Isocitrate dehydrogenase [NADP] cytoplasmic (Homo sapiens), O75874 [R132C]; experiment: Inhibition of IDH1 R132C mutant (unknown origin) expressed in HEK293T cells assessed as D2-HG level at 10 uM after 72 hrs relative to control; format: cell-based; settings: values are per cent of control
Chain of Isocitrate dehydrogenase [NADP] cytoplasmic (Homo sapiens), O75874 [R132C] (O75874 whole entry R132C): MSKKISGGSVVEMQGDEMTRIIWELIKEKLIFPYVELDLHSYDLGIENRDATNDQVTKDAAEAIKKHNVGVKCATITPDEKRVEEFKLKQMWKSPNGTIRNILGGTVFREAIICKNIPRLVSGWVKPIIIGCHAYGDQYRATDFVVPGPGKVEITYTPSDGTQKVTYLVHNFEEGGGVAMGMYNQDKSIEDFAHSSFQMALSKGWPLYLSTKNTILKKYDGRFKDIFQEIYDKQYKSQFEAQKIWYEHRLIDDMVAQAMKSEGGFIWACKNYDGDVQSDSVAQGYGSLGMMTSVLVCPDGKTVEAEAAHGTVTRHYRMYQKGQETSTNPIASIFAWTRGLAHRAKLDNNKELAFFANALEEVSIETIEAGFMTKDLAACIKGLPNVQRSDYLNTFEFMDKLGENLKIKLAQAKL

[2] = test system: Isocitrate dehydrogenase [NADP] cytoplasmic (Homo sapiens), O75874 [R132H]; experiment: Inhibition of IDH1 R132H mutant (unknown origin) expressed in HEK293T cells assessed as D2-HG level at 10 uM after 72 hrs relative to control; format: cell-based; settings: values are per cent of control
Chain of Isocitrate dehydrogenase [NADP] cytoplasmic (Homo sapiens), O75874 [R132H] (O75874 whole entry R132H): as the sequence (O75874 whole entry R132C) above, with C132H counted along it

[3] = test system: HEK-293T; experiment: (§1) Cytotoxicity against HEK293T cells harboring pMXs-IDH1wt-IRES-BsdRs assessed as cell survival at 50 uM after 72 hrs by CellTiterGlo assay relative to control; format: cell-based; settings: human, hek-293t, 72 h, 50 µM
[4] = test system: Isocitrate dehydrogenase [NADP] cytoplasmic (Homo sapiens), O75874 [R132H]; experiment: Inhibition of IDH1 R132H mutant (unknown origin) expressed in HEK293T cells assessed as D2-HG level at 50 uM after 72 hrs relative to control; format: cell-based; settings: values are per cent of control
[5] = test system: Isocitrate dehydrogenase [NADP] cytoplasmic (Homo sapiens), O75874 [R132C]; experiment: Inhibition of IDH1 R132C mutant (unknown origin) expressed in HEK293T cells assessed as D2-HG level at 50 uM after 72 hrs relative to control; format: cell-based; settings: values are per cent of control
[6] = biological target: Isocitrate dehydrogenase [NADP] cytoplasmic (Homo sapiens, UniProt O75874, R132C); experiment: Inhibition of IDH1 R132C mutant (unknown origin) expressed in HEK293T cells assessed as reduction in D2-HG level after 30 mins by resazurin-based fluorescence assay; format: cell-based
Chain of Isocitrate dehydrogenase [NADP] cytoplasmic (Homo sapiens, UniProt O75874, R132C) (O75874 2-414 R132C limits assumed): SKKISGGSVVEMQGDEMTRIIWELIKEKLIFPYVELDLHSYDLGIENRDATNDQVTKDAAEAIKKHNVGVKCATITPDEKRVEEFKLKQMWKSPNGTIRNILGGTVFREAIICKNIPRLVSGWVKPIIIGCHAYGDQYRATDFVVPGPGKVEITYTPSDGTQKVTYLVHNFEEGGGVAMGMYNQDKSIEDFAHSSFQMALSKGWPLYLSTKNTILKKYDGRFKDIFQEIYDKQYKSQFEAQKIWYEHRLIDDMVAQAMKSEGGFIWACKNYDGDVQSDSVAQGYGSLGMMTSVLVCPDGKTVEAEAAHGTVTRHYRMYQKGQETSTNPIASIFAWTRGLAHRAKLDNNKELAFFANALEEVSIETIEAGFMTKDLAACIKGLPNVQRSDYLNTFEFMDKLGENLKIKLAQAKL

[7] = biological target: Isocitrate dehydrogenase [NADP] cytoplasmic (Homo sapiens, UniProt O75874, R132H); experiment: Inhibition of IDH1 R132H mutant (unknown origin) expressed in HEK293T cells assessed as reduction in D2-HG level after 30 mins by resazurin-based fluorescence assay; format: cell-based
Chain of Isocitrate dehydrogenase [NADP] cytoplasmic (Homo sapiens, UniProt O75874, R132H) (O75874 2-414 R132H limits assumed): as the sequence (O75874 2-414 R132C limits assumed) above, with C131H counted along it

[8] = Effective permeability of the compound at 25 ug/ml after 18 hrs by BBB-PAMPA method; format: ADME; settings: read-out: Peff
[9] = Cytotoxicity against HEK293T cells harboring pMXs-IDH1wt-IRES-BsdRs assessed as cell survival at 10 uM after 72 hrs by CellTiterGlo assay relative to control; format: cell-based, HEK-293T; settings: human, read-out: Survival
[10] = as §1; format: cell-based, HEK-293T; settings: human, HEK293T cells harboring pMXs-IDH1wt-IRES-BsdRs; read-out: Survival

SMILES	response, % of control [1]	response, % of control [2]	response, % of control [4]	response, % of control [5]	IC50 [6]	IC50 [7]	Activity [3]	Papp at 18 h, 25 ug/ml [8]	viability at 72 h, 10 µM [9]	viability at 72 h, 50 µM [10]
COc1ccccc1NC(=O)c1c(NCc2cccnc2)sc2c1CC[C@H](C)C2	123%	96.7%	32%	34.7%	–	–	Non-Toxic	–	–	–
COC(=O)C1C(=O)C2=C(CC1C)Nc1ccccc1NC2c1c[nH]c2ccccc12 (configuration not stated)	–	–	–	–	50 µM	50 µM	–	–	–	–
CC(C)CCOc1cccc(C(=O)Nc2ccc(C(=O)Nc3cccc4ccccc34)cc2)c1	48.4%	54.9%	49.5%	43.6%	–	–	–	8.15 ×10⁻⁶ cm/s	91.3%	88.6%
COC(=O)c1ccccc1NC(=O)CNCn1cnc2ccccc21	86.1%	86.2%	66.3%	50.4%	–	–	Non-Toxic	–	–	–
Cc1ccccc1C(C(=O)NC1CCCCC1)N(C(=O)Cn1ccnc1C)c1cccc(F)c1 (configuration not stated)	13.3%	1.3%	0.4%	0.9%	–	–	–	–	–	–
Cc1ccc(NC(=O)c2cc([N+](=O)[O-])cc3c2-c2ccc([N+](=O)[O-])cc2C3=O)cc1	–	103%	72.5%	52.7%	–	–	Non-Toxic	–	–	–

Now from value to molecule, other results behind:

response, % of control [1]	response, % of control [2]	response, % of control [4]	response, % of control [5]	IC50 [6]	IC50 [7]	SMILES	Activity [3]	Papp at 18 h, 25 ug/ml [8]	viability at 72 h, 10 µM [9]	viability at 72 h, 50 µM [10]
138%	94.6%	73.7%	103%	–	–	COc1cccc(C(=O)Nc2cccc(OCC(=O)c3ccccc3)c2)c1	Non-Toxic	–	–	–
61.1%	58.2%	59.5%	109%	–	–	O=C(Nc1cccc(NC(=O)c2cccc(S(=O)(=O)N3CCCCC3)c2)c1)c1ccc(Br)cc1	Non-Toxic	–	–	–
79.3%	91.3%	39.9%	40.9%	–	–	CC(O)c1cccc(NC(=O)c2cnn3c2NC(c2ccccc2)CC3C(F)(F)F)c1 (configuration not stated)	Non-Toxic	–	–	–
